Experimental data published in patent publication US20220192956A1, “SUPERIOR EFFICACY OF AZOXYSTROBIN AND OTHER STROBILURINS” (The Procter & Gamble Company, priority 2020, published 2022).
In brackets after ≈: the same amount, converted by molar mass.

Key:
[1] = test system: Candida albicans (ATCC 10231); test: In vitro antifungal potency (MIC), growth read by absorbance at 600 nm; type: cell-based; conditions: Sabouraud Broth, 31° C., evaluated at concentrations up to 250 ppm; for MIC: Candida albicans, ATCC10231, read-out: MIC (ppm) against Candida albicans
Experimental: Candida albicans (ATCC 10231) is grown overnight in Sabouraud Broth (SDB). 190 μl of SDB is added per well of a Corning 3596 polystyrene plate followed by 5 μl of test material as two-fold dilutions in DMSO and 5 μl C. albicans. The cells are incubated at 31° C., without shaking, and wrapped in wet cotton batting. The plates are shaken for 30 seconds at 950 rpm on a MixMate shaker. The absorbance at 600 nm is read on a Spectramax plate reader.
(§1) All compounds are sourced from Sigma Aldrich (St. Louis, Mo.) and prepared as 10 mg/ml in DMSO. A semipermeable aeraseal membrane is applied to the plate which is then covered with water-soaked cotton batting. The samples are shaken at 31° C. on a Heidolph Titramax 100 shaker at 1500 rpm for approximately 72 hours. The plates are shaken at 1250 rpm on an Eppendorf MixMate shaker to disperse the cells before 200 μl of cells is transferred to a Corning 3596 polystyrene plate. The samples are shaken again at 950 rpm on a MixMate shaker before the absorbance at 600 nm is read using a Molecular Devices SpectraMax plate reader.

[2] = test system: Malassezia pachydermatis (CBS 1879); test: as above; type: cell-based; conditions: mDixon medium, 31° C., approximately 72 hours; for MIC: Malassezia pachydermatis, CBS1879, read-out: MIC (ppm) against Malassezia pachydermatis
Experimental: (§2) Malassezia furfur (CBS 7982), Malassezia sympodialis (ATCC 42132), and Malassezia pachydermatis (CBS 1879) is grown for approximately 24 hours in a 250 ml vent cap polycarbonate Erlenmeyer flask containing approximately 100 ml of mDixon medium and 5 ml of a fully grown Malassezia culture is prepared using the same conditions as described. The cells are diluted by mixing 2.5 ml of the 24 hour-old culture per 50 ml of mDixon medium. A Versette robot (ThermoFisher Scientific) is used to transfer 292.5 μl of the dilute cells into each well of a Beckman 267007 polypropylene round bottom deep well plate.
as §1

[3] = test system: Malassezia furfur (CBS 7982); test: as above; type: cell-based; conditions: for MIC: CBS7982, read-out: MIC (ppm) against Malassezia furfur; for MIC / MIC (ppm) against Malassezia furfur: mDixon medium, 31° C., approximately 72 hours
Experimental: as §2, §1

[4] = test system: Malassezia sympodialis (ATCC 42132); test: as above; type: cell-based; conditions: mDixon medium, 31° C., approximately 72 hours; for MIC: Malassezia sympodialis, ATCC42132, read-out: MIC (ppm) against Malassezia sympodialis
Experimental: as §2, §1

[5] = test system: Aspergillus brasiliensis (ATCC 16404); test: In vitro antifungal potency (MIC), growth graded visually; type: cell-based; conditions: spores in SDB, 25° C., approximately 96 h; for MIC: Aspergillus brasiliensis, ATCC16404, read-out: MIC (ppm) against Aspergillus brasiliensis
Experimental: Aspergillus brasiliensis (ATCC 16404): Aspergillus spores are prepared by inoculating a Sabouraud agar plate and incubating at 25° C. for 6-10 days, after which, 10 mL of Saline+Tween-80 is added to dislodge the spores. The suspension is then filtered through 2 layers of sterile gauze. The spores are diluted two-fold in SDB. 190 μl of SDB is added to a Corning 3596 polystyrene plate followed by 5 μl of test compound per well and 5 μl of the diluted spores. The plates are incubated at 25° C. for approximately 96 h at high humidity. Growth is graded visually as either growth or no growth.
as §1

[6] = cited from earlier work
Malassezia yeasts = test: In vitro antifungal potency (MIC), statements across the Malassezia species tested; type: cell-based
Experimental: as §2, §1

Row | MIC (ppm) against Candida albicans [1] | MIC (ppm) against Malassezia pachydermatis [2] | MIC (ppm) against Malassezia furfur [3] | MIC (ppm) against Malassezia sympodialis [4] | MIC (ppm) against Aspergillus brasiliensis [5] | times less potent than azoxystrobin (MIC against Malassezia furfur) ([3]; ratio of MICs, Malassezia furfur) | Structure (SMILES) | MIC [1] | MIC [2] | MIC ([3]; Malassezia furfur) | MIC [4] | MIC [5] | solubility in water [6] | MIC against Malassezia yeasts (all species tested) (Malassezia yeasts; M. furfur, M. sympodialis, M. pachydermatis) | times more potent than pyraclostrobin (MIC against Malassezia, in all cases) (Malassezia yeasts; ratio of MICs, all three Malassezia species)
1 |  |  |  |  |  |  | CO/N=C(/C(=O)OC)c1ccccc1COc1ccccc1C [Kresoxim-methyl, kresoxim methyl] | > 250 µg/mL | 31.2 µg/mL (≈ 99.7 µM) | 15.6 µg/mL (≈ 49.9 µM) | 3.91 µg/mL (≈ 12.5 µM) | 0.98 µg/mL (≈ 3.13 µM) |  |  | 
2 | >250 ppm | 31.25 ppm | 7.81 ppm | 1.95 ppm | 0.24 ppm |  | CNC(=O)/C(=N/OC)c1ccccc1COc1cc(C)ccc1C [Dimoxystrobin, dimoxystrobin] |  |  |  |  |  |  |  | 
3 |  |  |  |  |  |  | CO/N=C(/C1=NOCCO1)c1ccccc1Oc1ncnc(Oc2ccccc2Cl)c1F [Fluoxastrobin, fluoxastrobin] | > 250 µg/mL | 7.81 µg/mL (≈ 17 µM) | 3.91 µg/mL (≈ 8.52 µM) | 1.95 µg/mL (≈ 4.25 µM) | 0.49 µg/mL (≈ 1.07 µM) |  |  | 
4 |  |  |  |  |  |  | COC(=O)N(OC)c1ccccc1COc1ccn(-c2ccc(Cl)cc2)n1 [Pyraclostrobin, pyraclostrobin] | > 250 µg/mL | 3.91 µg/mL (≈ 10.1 µM) | 1.95 µg/mL (≈ 5.03 µM) | 0.49 µg/mL (≈ 1.26 µM) | 0.02 µg/mL (≈ 0.0516 µM) |  |  | 
5 | >250 ppm | 125 ppm | 31.25 ppm | 7.81 ppm | 31.25 ppm | 64 times | CNC(=O)/C(=N/OC)c1ccccc1CO/N=C(C)/C(=N/OC)C(/C)=N/OC [Orysastrobin, orysastrobin] |  |  |  |  |  |  |  | 
6 |  |  |  |  |  |  | CON=C(C(=O)OC)c1ccccc1CON=C(C)c1cccc(C(F)(F)F)c1 [Trifloxystrobin, trifloxystrobin] | > 250 µg/mL | 31.2 µg/mL (≈ 76.5 µM) | 15.6 µg/mL (≈ 38.3 µM) | 1.95 µg/mL (≈ 4.78 µM) | 31.2 µg/mL (≈ 76.5 µM) |  |  | 

Row | Structure (SMILES) | MIC (ppm) against Candida albicans [1] | MIC (ppm) against Malassezia pachydermatis [2] | MIC (ppm) against Malassezia furfur [3] | MIC (ppm) against Malassezia sympodialis [4] | MIC (ppm) against Aspergillus brasiliensis [5] | times less potent than azoxystrobin (MIC against Malassezia furfur) ([3]; ratio of MICs, Malassezia furfur) | MIC [1] | MIC [2] | MIC ([3]; Malassezia furfur) | MIC [4] | MIC [5] | solubility in water [6] | MIC against Malassezia yeasts (all species tested) (Malassezia yeasts; M. furfur, M. sympodialis, M. pachydermatis) | times more potent than pyraclostrobin (MIC against Malassezia, in all cases) (Malassezia yeasts; ratio of MICs, all three Malassezia species)
7 | CO/C=C(/C(=O)OC)c1ccccc1Oc1cc(Oc2ccccc2C#N)ncn1 [Azoxystrobin] | >250 ppm | 0.98 ppm | 0.49 ppm | 0.12 ppm | 0.24 ppm |  |  |  |  |  |  | low | less than 1.0 ppm | 4 times
